Source: patent US7335776B2, “Remedies for depression containing EP1 antagonist as the active ingredient” (Ono Pharmaceutical Co., Ltd., priority 2002, dated 2008)

Columns and labels:
[1] = test system: male ddy mice; experiment: Tail-suspension test in mice; assay type: in vivo; conditions: for Inhibition (%): inhibition of immobility vs. vehicle; for Inhibition (%) / Immobility time: 10 mg/kg orally 1 hour before measurement, ten animals per group; for Immobility time / Immobility time as compared with that in the vehicle treated group: tail suspension; for Immobility time: immobility time for 10 minutes; for Immobility time as compared with that in the vehicle treated group: rate of inhibition statistically significant
Procedure: It was confirmed by the following experiments that the compounds of formula of (IA)-(IK) could be useful for the treatment of depression. The following paper can be referred to about a tail-suspension test and its testing system in mice. • 1) Psychopharmacology (1985) 85: 367-370 • 2) Prog. Neuro-Psychopharmacol. & Biol. Psychiat. 1987 Vol. 11, 659-671 (1) Tail-Suspension Test in Mice
The test compound (10 mg/kg animal body weight) was administered orally to male ddy mice weighing around 30 g 1 hour before the beginning of measurement. The mice were suspended by their tail on the hook of Tail Suspension TEST System (Neuroscience, Inc., Model NS-TST01-SS2) using adhesive tape. The subsequent immobility time for 10 minutes was measured. If the mice have none of administration, they get about 300 seconds as an immobility time in this experiment. Generally, the medicine having an anti-depressive action shortens this immobility time.
In addition, in any case, ten animals were used for each group.

[2] = Toxicity (LD50 by oral administration to mouse); conditions: in vivo
Procedure: The toxicity of the compounds of the present invention is very low and therefore, it is confirmed that these compounds are safe for use as medicine. For example, LD50 values of the compound A and B of the present invention by oral administration to mouse are 2000 mg/kg and over.

[3] = test system: male SD (IGS) rat; experiment: Forced swim test in rats; assay type: in vivo; conditions: for Immobility time / Immobility time as compared with that in the vehicle treated group: forced swim; for Immobility time: 5 minutes observation on 2nd day; for Immobility time / Inhibition (%): test compound orally 5 mL/kg (desipramine intraperitoneally 2 mL/kg) after 1st examination and 1 hour before 2nd, twelve animals per group; for Immobility time as compared with that in the vehicle treated group: rate of inhibition statistically significant; for Inhibition (%): inhibition of immobility vs. vehicle
Procedure: The seven-week old male SD (IGS) rat freely fed was solely put into the forced swimming equipment (the cylinder (Neuroscience, Inc.) of diameter of inner 19 cm, and height 40 cm, depth-sounding 17 cm, water temperature of 23±1° C.) manufactured with the transparent acrylics board, and let it swim for 15 minutes. The rat was immediately dried after the end of trial and was returned to the home cage. […] In this time, the behavior of rat is distinguished by immobile state, struggling, submerging and swimming. The immobility time, period that rats were floating on the water by taking their head outside of the water without stroking by both legs, were measured. In addition, the water in equipment was exchanged for every trial. Moreover, one trial was conducted for each animal.
The test compound was administered orally by 5 mL/kg dosage immediately after the end of the examination on the 1st, and 1 hour before the examination on the 2nd. And, the positive control compound (desipramine; […]) was similarly administered intraperitoneally by 2 mL/kg dosage immediately after the end of the examination on the 1st, and 1 hour before the examination on the 2nd.
In addition, in any case, twelve animals were used for each group.

Compound | Inhibition (%) [1] [%] | Immobility time [1] [s] | Immobility time as compared with that in the vehicle treated group [1] | LD50 [2] [mg/kg] | Immobility time [3] [s] | Immobility time as compared with that in the vehicle treated group [3] | Inhibition (%) [3] [%]
Cc1cc(Cl)ccc1S(=O)(=O)NC[C@H]1C2CCC(CC2)[C@H]1/C=C\CCCC(=O)O [Compound A, 6-[(2S, 3S)-3-(4-chloro-2-methylphenylsulfonylaminomethyl)-bicyclo[2.2.2]octan-2-yl]-5Z-hexenoic acid] | 30 ± 7 | 202 ± 20 | shortened | – | – | – | –
Cc1ccc(S(=O)(=O)N(c2ccc(C(F)(F)F)cc2OCc2ccc(C(=O)O)cc2)C(C)C)o1 [Compound B, 4-[2-[N-isopropyl-N-(5-methyl-2-furylsulfonyl)amino]-5-trifluoromethylphenoxymethyl]benzoic acid] | 35 ± 8 | 194 ± 23 | shortened | ≥ 2000 | 163 ± 21 | shortened | 31 ± 9
CC(C)CN(c1ccc(C(F)(F)F)cc1OCc1ccc(C=CC(=O)O)cc1)S(=O)(=O)c1ccco1 [Compound C, 4-[2-(N-isobutyl-2-furanylsulfonylamino)-5-trifluoromethylphenoxymethyl]cinnamic acid] | 23 ± 7 | 212 ± 20 | shortened | – | – | – | –
Cc1ccc(S(=O)(=O)N(CC(C)C)c2cc(C)c(C)cc2OCc2ccc(C(=O)O)cc2)o1 [Compound D, 4 [2-[N-isobutyl-N-(5-methyl-2-furylsulfonyl)amino]-4,5-dimethylphenoxymethyl]benzoic acid] | 27 ± 8 | 217 ± 24 | shortened | – | – | – | –
Cc1ccc(S(=O)(=O)N(CC(C)C)c2cc(C)c(C)cc2OCc2ccc(C(=O)O)cc2C)o1 [Compound E, 3-methyl-4-[2-[N-isobutyl-N-(5-methyl-2-furylsulfonyl)amino]4,5-dimethylphenoxymethyl]benzoic acid] | 38 ± 12 | 185 ± 36 | shortened | – | – | – | –
Cc1ccc(S(=O)(=O)N(CC(C)C)c2cc3c(cc2OCc2ccc(/C=C/C(=O)O)cc2)CCC3)o1 [Compound F, 4-[6-[N-isobutyl-N-(5-methyl-2-furylsulfonyl)amino]indan-5-yloxymethyl]cinnamic acid] | 47 ± 9 | 160 ± 26 | shortened | – | – | – | –
CCCN(c1cc(C)c(C)cc1OCc1ccc(C(=O)O)cc1)S(=O)(=O)c1ccc(C)o1 [Compound H, 4-[4,5-dimethyl-2-[N-(5-methyl-2-furylsulfonyl)-N-propylamino]phenoxymethyl]benzoic acid] | – | – | – | – | 156 ± 21 | shortened | 35 ± 9
Cc1ccc(C(=O)N(c2ccc(C(F)(F)F)cc2OCc2ccc(/C=C/C(=O)O)cc2)C(C)C)o1 [Compound J, 4-[5-trifluoromethyl-2-[N-(5-methyl-2-furylcarbonyl)-N-isopropylamino]phenoxymethyl]cinnamic acid] | – | – | – | – | 194 ± 16 | shortened | 20 ± 7
Cc1csc(S(=O)(=O)N(CC(C)C)c2cc3c(cc2OCc2ccc(C(=O)O)cc2)CCC3)n1 [Compound K, 4-[6-[N-isobutyl-N-(4-methyl-2-thizolylsulfonyl)amino]indan-5-yloxymethyl]benzoic acid] | – | – | – | – | 172 ± 17 | shortened | 29 ± 7
CNCCCN1c2ccccc2CCc2ccccc21 [Desipramine, desipramine, reference compound] | – | – | – | – | 112 ± 15 | – | 53 ± 6
